Measurements published in patent US20260347364A1, “PYRAZOLO[4,3-F]QUINAZOLINE DERIVATIVES AS MODULATORS OF G12D MUTANT KRAS USEFUL FOR THE TREATMENT OF CANCER” (JAZZ PHARMACEUTICALS IRELAND LTD., priority 2023, published 2026).

Assays:
KRAS G12D = biological target: T1, KRAS G12D (Homo sapiens, UniProt P01116, G12D); experiment: HTRF nucleotide exchange assay, KRAS G12D; type: biochemical; settings: class symbols; for IC50: HTRF nucleotide exchange assay (NEA)
T1 construct: aa1-188 KRAS WT, HRAS WT, NRAS WT, or KRAS containing the G12D

KRAS WT = biological target: T2, KRAS WT (Homo sapiens, UniProt P01116); experiment: HTRF nucleotide exchange assay, KRAS WT; type: biochemical; settings: class symbols; for IC50: HTRF nucleotide exchange assay (NEA)
T2 construct: aa1-188 KRAS WT

IC50 (KRAS G12D) | IC50 (KRAS WT) | KRAS^G12D NEA (KRAS G12D) | KRAS^WT NEA (KRAS WT) | SMILES
≤ 10 nM | 100 to 10000 nM | – | – | CCc1c(F)ccc2cc(O)cc(-c3c(C)c4nc(OCC5(CO)CC5)nc(N5CC6CCC(C5)N6)c4c4cn(C)nc34)c12 [Example 242, 4-[9-(3,8-diazabicyclo[3.2.1]octan-3-yl)-7-[[1-(hydroxymethyl)cyclopropyl]methoxy]-2,5-dimethyl-pyrazolo[4,3-f]quinazolin-4-yl]-5-ethyl-6-fluoro-naphthalen-2-ol]
≤ 10 nM | ≤ 10 nM | – | – | C#Cc1c(F)ccc2cc(O)cc(-c3cc4nc(OC[C@@]56CCCN5C[C@H](F)C6)nc(N5CCOCC(C)(O)C5)c4c4cn(C)nc34)c12 (stereo partly drawn) [Example 11, 4-[4-(8-ethynyl-7-fluoro-3-hydroxy-1-naphthyl)-2-methyl-7-[[(2R,8S)-2-fluoro-1,2,3,5,6,7-hexahydropyrrolizin-8-yl]methoxy]pyrazolo[4,3-f]quinazolin-9-yl]-6-methyl-1,4-oxazepan-6-ol]
– | – | D (<49% inhibition at 10 μM) | D (<49% inhibition at 10 μM) | Cc1cc(N)nc(-c2cc3nc(OCC45CCCN4CC(F)C5)nc(N4CCCOCC4)c3c3cn(C)nc23)c1C(F)(F)F [Example 16, 4-methyl-6-[2-methyl-9-(1,4-oxazepan-4-yl)-7-[(2R,8S)-2-fluoro-1,2,3,5,6,7-hexahydropyrrolizin-8-yl]methoxy]pyrazolo[4,3-f]quinazolin-4-yl]-5-(trifluoromethyl)pyridin-2-amine]
≤ 10 nM | ≤ 10 nM | – | – | CCc1c(F)ccc2cc(O)cc(-c3c(F)c4nc(OCC5(CN6CCOCC6)CC5)nc(N5CCOCC(C)(O)C5)c4c4cn(C)nc34)c12 (stereo not drawn) [Example 162, 4-[4-(8-ethyl-7-fluoro-3-hydroxy-1-naphthyl)-5-fluoro-2-methyl-7-[[1-(morpholinomethyl)cyclopropyl]methoxy]pyrazolo[4,3-f]quinazolin-9-yl]-6-methyl-1,4-oxazepan-6-ol]
≤ 10 nM | ≤ 10 nM | – | – | CCc1c(F)ccc2cc(O)cc(-c3c(F)c4nc(OC[C@@]56CCCN5C[C@H](F)C6)nc(N5CCOC[C@](C)(O)C5)c4c4cn(C)nc34)c12 [Example 110, (6R)-4-[4-(8-ethyl-7-fluoro-3-hydroxy-1-naphthyl)-5-fluoro-2-methyl-7-[[(2R,8S)-2-fluoro-1,2,3,5,6,7-hexahydropyrrolizin-8-yl]methoxy]pyrazolo[4,3-f]quinazolin-9-yl]-6-methyl-1,4-oxazpan-6-ol]
100 to 10000 nM | 100 to 10000 nM | – | – | CCc1c(F)ccc2cc(O)cc(-c3c(F)c4nc(OCC5(C#N)CCOC5)nc(N5CCCNC(=O)C5)c4c4cn(C)nc34)c12 (stereo not drawn) [Example 244, 3-[[4-(8-ethyl-7-fluoro-3-hydroxy-1-naphthyl)-5-fluoro-2-methyl-9-(3-oxo-1,4-diazepan-1-yl)pyrazolo[4,3-f]quinazolin-7-yl]oxymethyl]tetrahydrofuran-3-carbonitrile]
10 to 100 nM | 10 to 100 nM | – | – | CCc1c(F)ccc2cc(O)cc(-c3cc4nc(OCC5CCCN5C)nc(N5CCCOCC5)c4c4cn(C)nc34)c12 (stereo not drawn) [Example 18, 5-ethyl-6-fluoro-4-[2-methyl-7-[(1-methylpyrrolidin-2-yl)methoxy]-9-(1,4-oxazepan-4-yl)pyrazolo[4,3-f]quinazolin-4-yl]naphthalen-2-ol]
– | 100 to 10000 nM | D (<49% inhibition at 10 μM) | – | CCc1c(F)ccc2cc(O)cc(-c3cc4nc(OC[C@@]56CCCN5C[C@H](F)C6)nc(N5CCC6(CC6)C(O)C5)c4c4cn(C)nc34)c12 (stereo partly drawn) [Example 130, 6-[4-(8-ethyl-7-fluoro-3-hydroxy-1-naphthyl)-2-methyl-7-[[(2R,8S)-2-fluoro-1,2,3,5,6,7-hexahydropyrrolizin-8-yl]methoxy]pyrazolo[4,3-f]quinazolin-9-yl]-6-azaspiro[2.5]octan-8-ol]
≤ 10 nM | 100 to 10000 nM | – | – | CCc1c(F)ccc2cc(O)cc(-c3cc4nc(OC[C@@]56CCCN5C[C@H](F)C6)nc(N5CC6CNCC6C5)c4c4cn(C)nc34)c12 (stereo partly drawn) [Example 25, 4-(2,7-diazaspiro[4.4]nonan-2-yl)-6-(8-ethyl-7-fluoro-3-hydroxy-1-naphthyl)-2-[[(2R,8S)-2-fluoro-1,2,3,5,6,7-hexahydropyrrolizin-8-yl]methoxy]-7H-pyrrolo[3,4-d]pyrimidin-5-one]
10 to 100 nM | ≤ 10 nM | – | – | C#Cc1c(F)ccc2cc(O)cc(-c3c(C)c4nc(OC[C@@]56CCCN5C[C@H](F)C6)nc(N5CCOCC(C)(O)C5)c4c4cn(C)nc34)c12 (stereo partly drawn) [Example 185, 4-[4-(8-ethynyl-7-fluoro-3-hydroxy-1-naphthyl)-7-[[(2R,8S)-2-fluoro-1,2,3,5,6,7-hexahydropyrrolizin-8-yl]methoxy]-2,5-dimethyl-pyrazolo[4,3-f]quinazolin-9-yl]-6-methyl-1,4-oxazepan-6-ol]
10 to 100 nM | 10 to 100 nM | – | – | CCc1c(F)ccc2cc(O)cc(-c3cc4nc(OC[C@@]56CCCN5C[C@H](F)C6)nc(N5CCOC[C@](C)(O)C5)c4c4cn(C)nc34)c12 [Example 41, (6R)-4-[4-(8-ethyl-7-fluoro-3-hydroxy-1-naphthyl)-2-methyl-7-[[(2R,8S)-2-fluoro-1,2,3,5,6,7-hexahydropyrrolizin-8-yl]methoxy]pyrazolo[4,3-f]quinazolin-9-yl]-6-methyl-1,4-oxazepan-6-ol]
10 to 100 nM | 100 to 10000 nM | – | – | Cc1cc2[nH]ncc2c(-c2cc3nc(OC[C@@]45CCCN4C[C@H](F)C5)nc(N4CCCn5nc(C(=O)N(C)C)cc5C4)c3c3cn(C)nc23)c1C [Example 60, 5-[4-(5,6-dimethyl-1H-indazol-4-yl)-2-methyl-7-[[(2R,8S)-2-fluoro-1,2,3,5,6,7-hexahydropyrrolizin-8-yl]methoxy]pyrazolo[4,3-f]quinazolin-9-yl]-N,N-dimethyl-4,6,7,8-tetrahydropyrazolo[1,5-a][1,4]diazepine-2-carboxamide]
≤ 10 nM | 10 to 100 nM | – | – | CCc1c(F)ccc2cc(O)cc(-c3c(F)c4nc(OCC5COCCN5)nc(N5CCOCC(C)(O)C5)c4c4cn(C)nc34)c12 (stereo not drawn) [Example 233, 4-[4-(8-ethyl-7-fluoro-3-hydroxy-1-naphthyl)-5-fluoro-2-methyl-7-(morpholin-3-ylmethoxy)pyrazolo[4,3-f]quinazolin-9-yl]-6-methyl-1,4-oxazepan-6-ol]
≤ 10 nM | ≤ 10 nM | – | – | CCc1c(F)ccc2cc(O)cc(-c3c(C)c4nc(OC[C@@]56CCCN5C[C@H](F)C6)nc(N5CCCn6nc(C(=O)N(C)C)nc6C5)c4c4cn(C)nc34)c12 (racemic) [Example 198, 8-[4-(8-ethyl-7-fluoro-3-hydroxy-1-naphthyl)-2,5-dimethyl-7-[[rac-(2R,8S)-2-fluoro-1,2,3,5,6,7-hexahydropyrrolizin-8-yl]methoxy]pyrazolo[4,3-f]quinazolin-9-yl]-N,N-dimethyl-5,6,7,9-tetrahydro-[1,2,4]triazolo[1,5-a][1,4]diazepine-2-carboxamide]
≤ 10 nM | ≤ 10 nM | – | – | CCc1c(F)ccc2cc(O)cc(-c3cc4nc(OC[C@@]56CCCN5C[C@H](F)C6)nc(N5CCOC[C@@](C)(O)C5)c4c4cn(C)nc34)c12 [Example 40, (6S)-4-[4-(8-ethyl-7-fluoro-3-hydroxy-1-naphthyl)-2-methyl-7-[[(2R,8S)-2-fluoro-1,2,3,5,6,7-hexahydropyrrolizin-8-yl]methoxy]pyrazolo[4,3-f]quinazolin-9-yl]-6-methyl-1,4-oxazepan-6-ol]
